For 43 molecules, logP results are on record in the SangsterLogP compilation.

Data set [1] is described as follows: method code SF-AS, from DOI: 10.1016/s0021-9673(00)94589-8, PMID: 3356765.

For orientation: logP means a log measure of how a compound divides between an organic and an aqueous phase. A high value points to higher lipophilicity. In data set [1], `COC(=O)Nc1ccccc1C(F)(F)F` gave a lipophilicity (logP) of 2.09.
In the case of `COC(=O)Nc1cccc(Cl)c1`, the log partition coefficient (logP) was 2.59.
As to `CCc1cccc(NC(=O)OC)c1`, the log partition coefficient (logP) in data set [1] was 2.72.
As for `COC(=O)Nc1cccc(C(C)=O)c1`, the log partition coefficient (logP) in data set [1] came to 1.63.
On to `COC(=O)Nc1cccc(I)c1`, for which the logP was determined as 2.88.
On to `COC(=O)Nc1ccccc1OC`, for which, in data set [1], the logP was 1.84.
With `COC(=O)Nc1ccc(F)cc1`, the logP is 2.02.
Regarding `CCOc1ccc(NC(=O)OCc2ccccc2)cc1OCC`, the log partition coefficient (logP) turned out to be 3.32.
On the same count and under the same terms, with `COC(=O)Nc1ccc(C#N)cc1` the figure was 1.67; with `CCOc1ccc(NC(=O)OC(CBr)CBr)cc1OCC`, 3.39.
In data set [1], `COC(=O)Nc1ccc(C)cc1` gave a logP of 2.27.
The same measure, in the same setting: under `COC(=O)Nc1ccccc1C` stands 1.69.
Consider `C=CCOC(=O)Nc1ccc(OCC)c(OCC)c1`, for which the logP was 2.74.
The same measure, in the same setting: with `CCCCOC(=O)Nc1ccc(OCC)c(OCC)c1` the figure was 3.35.
In turn, `CCOc1cccc(NC(=O)OC)c1` had a logP of 2.28.
On the same count and under the same terms, under `CCOc1ccc(NC(=O)OCC(C)C)cc1OCC` stands 3.33; under `COC(=O)Nc1cccc(F)c1`, 2.17; under `CCCOC(=O)Nc1ccc(OCC)c(OCC)c1`, 2.97.
In data set [1], `COC(=O)Nc1ccccc1Br` gave a lipophilicity (logP) of 2.25.
On to `CCOc1ccccc1NC(=O)OC`, for which the lipophilicity (logP) in data set [1] amounted to 2.4.
Still for that read-out and setting: under `COC(=O)Nc1ccccc1[N+](=O)[O-]` stands 2.07; under `COC(=O)Nc1ccccc1F`, 1.66.
In the case of `COC(=O)Nc1cccc(C#N)c1`, the log partition coefficient (logP) in data set [1] came out at 1.77.
In the case of `CCOc1ccc(NC(=O)OC)cc1OCC`, the log partition coefficient (logP) stood at 2.2.
In data set [1], `CCOc1ccc(NC(=O)OC)cc1` yielded a logP of 2.11.
For the molecule `COC(=O)Nc1ccc(Cl)cc1`, the log partition coefficient (logP) worked out at 2.52.
For `CCOc1ccc(NC(=O)OC(C)C)cc1OCC`, in data set [1], the log partition coefficient (logP) amounted to 2.82.
In turn, `COC(=O)Nc1cccc(Br)c1` yielded a lipophilicity (logP) of 2.71.
The molecule `COC(=O)Nc1cccc([N+](=O)[O-])c1` displayed a logP in data set [1] of 1.95.
In the case of `COC(=O)Nc1ccccc1Cl`, the logP is 2.19.
`COC(=O)Nc1ccc([N+](=O)[O-])cc1` had a logP of 1.98.
For `CCc1ccc(NC(=O)OC)cc1`, in data set [1], the logP was determined as 2.72.
In the case of `COC(=O)Nc1ccccc1I`, the logP amounted to 2.36.
Take `C#CCOC(=O)Nc1ccc(OCC)c(OCC)c1`: in data set [1], the logP is 2.68.
`CCOC(=O)Nc1ccc(OCC)c(OCC)c1` displayed a logP of 2.58.
Same read-out and setting: under `CCOc1ccc(NC(=O)OCCOC)cc1OCC` stands 2.22.
Consider `CCOc1ccc(NC(=O)OCCC#N)cc1OCC`, for which the logP in data set [1] stood at 2.13.
With `COC(=O)Nc1ccc(OC)cc1`, the logP stood at 1.77.
In data set [1], `COC(=O)Nc1cccc(C(F)(F)F)c1` registered a log partition coefficient (logP) of 2.74.
Still for that read-out and setting: with `COC(=O)Nc1cccc(C)c1` the figure was 2.22; with `CCCCc1ccc(NC(=O)OC)cc1`, 3.68.
`CCOc1ccc(NC(=O)OC2CCCC2)cc1OCC` gave a logP of 3.41.
Turning to `COC(=O)Nc1cccc(OC)c1`, in data set [1], the logP came to 1.92.
